Assay results as given in ChEMBL document CHEMBL1127775, “Orally active prodrugs of quinoline-4-carboxylic acid angiotensin II receptor antagonists” (Bioorg Med Chem Lett, 1994).

Tests used:
[1] = Oral bioavailability in rat; format: ADME, organism-based; conditions: in vivo
Rattus norvegicus [2] = assay: Oral activity determined using the salt-deplete spontaneously hypertensive rat (SHR) model, expressed as percent of maximum decrease in mean arterial pressure at a oral dose of 10 umol/kg for 6-12 hr; format: functional, Artery
Rattus norvegicus [3] = assay: Oral activity determined using the salt-deplete spontaneously hypertensive rat (SHR) model, expressed as percent of maximum decrease in mean arterial pressure at a oral dose of 10 umol/kg for 0-6 hr; format: functional, Artery
Rattus norvegicus [4] = assay: Oral activity determined using the salt-deplete spontaneously hypertensive rat (SHR) model, expressed as percent of maximum decrease in mean arterial pressure at a oral dose of 10 umol/kg for 18-24 hr; format: functional, Artery
Rattus norvegicus [5] = assay: Oral activity determined using the salt-deplete spontaneously hypertensive rat (SHR) model, expressed as percent of maximum decrease in mean arterial pressure at a oral dose of 10 umol/kg for 12-18 hr; format: functional, Artery
Rattus norvegicus [6] = assay: Tested for fall in blood pressure on seventh day after dosing; format: functional
Rattus norvegicus [7] = assay: Oral activity determined using the salt-deplete spontaneously hypertensive rat (SHR) model, expressed as percent of maximum decrease in mean arterial pressure at a oral dose of 30 umol/kg for 18-24 hr; format: functional, Artery
Rattus norvegicus [8] = assay: Oral activity determined using the salt-deplete spontaneously hypertensive rat (SHR) model, expressed as percent of maximum decrease in mean arterial pressure at a oral dose of 30 umol/kg for 0-6 hr; format: functional, Artery
Oryctolagus cuniculus = species on record: Oryctolagus cuniculus; assay: Functional antagonism was measured by the ability of a single concentration of compound to block angiotensin II induced contractions in rabbit aortic smooth muscle strips.; conditions: Aorta
Rattus norvegicus [9] = assay: Oral activity determined using the salt-deplete spontaneously hypertensive rat (SHR) model, expressed as percent of maximum decrease in mean arterial pressure at a oral dose of 30 umol/kg for 12-18 hr; format: functional, Artery
Rattus norvegicus [10] = assay: Oral activity determined using the salt-deplete spontaneously hypertensive rat (SHR) model, expressed as percent of maximum decrease in mean arterial pressure at a oral dose of 30 umol/kg for 6-12 hr; format: functional, Artery

bioavailability [1] | Structure (SMILES) | Decrease (Rattus norvegicus [2]) | Decrease (Rattus norvegicus [3]) | Decrease (Rattus norvegicus [4]) | Decrease (Rattus norvegicus [5]) | Blood pressure (Rattus norvegicus [6]) | Decrease (Rattus norvegicus [7]) | Decrease (Rattus norvegicus [8]) | Kb (Oryctolagus cuniculus) | Decrease (Rattus norvegicus [9]) | Decrease (Rattus norvegicus [10])
39% | CC(C)C(OC(=O)C(C)(C)C)n1nnc(-c2ccccc2-c2ccc(Oc3c(C4CC4)nc4ccccc4c3C(=O)O)cc2)n1 (stereo not given) | 17% | 17% | 19% | 20% |  |  |  |  |  | 
27% | Cc1oc(=O)oc1COC(=O)c1c(Oc2ccc(-c3ccccc3-c3nn[nH]n3)cc2)c(C2CC2)nc2ccccc12 | 19% | 19% | 24% | 23% | 45 mmHg |  |  |  |  | 
 | O=C(O)c1c(Oc2ccc(-c3ccccc3-c3nn[nH]n3)cc2)c(C2CC2)nc2ccccc12 |  |  |  |  |  | 23% | 14% | 0.061 nM | 21% | 14%
 | CCC(=O)OC(OC(=O)c1c(Oc2ccc(-c3ccccc3-c3nn[nH]n3)cc2)c(C2CC2)nc2ccccc12)C(C)C (stereo not given) | 5% | 7% | 19% | 9% |  |  |  |  |  | 
 | CCOC(=O)c1c(Oc2ccc(-c3ccccc3-c3nn[nH]n3)cc2)c(C2CC2)nc2ccccc12 |  |  |  |  |  | 26% | 17% |  | 25% | 19%
 | CCCCc1nc(Cl)c(CO)n1Cc1ccc(-c2ccccc2-c2nnn[nH]2)cc1 [LOSARTAN] |  |  |  |  | 20 mmHg |  |  |  |  | 
